Patent US12377069B2, “Compounds, compositions, methods of using, and methods for preparing compounds” (UNIVERSITY OF LOUISVILLE RESEARCH FOUNDATION, INC., priority 2018, dated 2025)

Tests used:
5FUR HCT116 cells = test: EMT markers in colon cancer cells (Western blot); type: cell-based; settings: for EMT markers ZO-1, E-Cadherin, Snail, β-catenin: 5FUR HCT116, 72 h, in the presence of 5FU
Experimental: FIG. 41: Western blot analysis of EMT markers in 5FUR HCT116 cells in treated (72 h) with 5FU in the presence or absence of UroA/UAS03.
UroA/UAS03 treatment reduce epithelial-mesenchymal transitions (EMT) signature in 5FU resistant (5FU R) colon cancer cells: We examined EMT markers in 5FU sensitive (parent) and 5FU resistant (5FUR) HCT116 colon cancer cell lines. […] The reciprocal expression of these molecules are hallmarks of EMT signature. Next, we examined whether treatment with UroA/UAS03 can reverse these patterns in 5FUR cells. […] One of the mechanisms by which cancer cells acquire chemoresistant phenotype is by the induction of drug transporters such as Multidrug resistance-associated protein 2 (MRP2), ATP-binding cassette (ABC) drug efflux transporter proteins, BCRP and P-gycoprotein (P-gp).

C57BL/6 mice [1] = test: TNBS-induced colitis; type: in vivo, mouse; settings: for colitis phenotype, therapeutic regimen: 20 mg/kg from 24 h post-TNBS; for TNBS-induced colon shortening and colonic inflammation, pre-treatment / barrier function, pre-treatment: oral 20 mg/kg daily one week before TNBS, none after
[2] = test system: Human Umbilical Vein Endothelial Cells (HUVECs); test: HUVEC CDH5 expression and in vitro permeability; type: cell-based
C57BL/6 mice [3] = test: LPS-induced peritonitis mouse model; type: in vivo; settings: 20 mg/kg; LPS 2 mg/kg i.p.; 4 h post LPS
Experimental: FIG. 1: UAS03 is a potent anti-inflammatory structural analogue of UroA and induces tight junction proteins. (A) Chemical structures of UroA, UAS03. UroA/UAS03 stability was examined in the presence of gastric pH 2.0 and digestive enzymes. UroA and UAS03 (0.2 mg/ml) were incubated with digestive enzymes (esterases and proteases, 100 U/ml) for 12 h at 37° C. and compound levels were quantified. (B) BMDMs were stimulated with LPS (50 ng/ml) without or with UroA (blue line)/UAS03 (purple line) (0.1, 1, 10, 25 and 50 μM) for 6 hours. IL-6 and TNF-α levels in supernatants were measured. (C) C57BL/6 mice (n=3-4) were pretreated with UroA (20 mg/kg) and UAS03 (20 mg/kg). After 4 hours, LPS (2 mg/kg) was injected intraperitoneally. Post 4 h of LPS administration, serum levels of IL-6 and TNF-α was measured. […] (G) The fold changes in mRNA levels of claudin 4 (Cldn4), occludin (Ocln) and Zona occludens 1 (ZO1) in HT29 cells were determined by RT PCR method. (H) UroA/UAS03 induced protein expression of Cldn4, Ocln and ZO1 in HT29 cells were determined by immunoblots and quantified by Image J software. […] The green intensity (n=15-20 cell membrane regions) was measured. […] The protein lysates were prepared from colon scrapes and subjected to immunoblots and detected the expression of the (J) Nrf2, HO1, Cldn4 and (K) AhR using appropriate antibodies as described in methods. […]

HeLa cells = test: Autophagy induction (RFP-GFP-LC3); type: cell-based; settings: 2 hours treatment
Experimental: Autophagy induction after compound treatment for 2 hours is assessed by the presence of red and green punctate inside the cells. The HeLa cells were transfected with RFP-GFP-LC3 plasmid 48 hours prior to drug treatments. After drug treatment for 2 hours the cells are fixed and imaged. LC3 is a protein that is expressed on autophagosomes and is seen as green puncta. When the autophagosome and lysosome fuse to form autolysosomes, the acidic pH inside of it causes degradation of GFP protein and only red puncta are visible (FIG. 26).

C57BL/6 mice [4] = test: 28-day repeated dose toxicity study; settings: oral 20 or 40 mg/kg daily, 28 days
Experimental: 28-day repeated dose toxicity study: To evaluate toxicity of UroA and UAS03, we performed 28-days repeated dose toxicity study. Mice were fed (oral gavage) with UroA (20 and 40 mg/kg/day) and UAS03 (20 and 40 mg/kg/day) daily for 28 days. Body weight, food and water intake were assessed weekly. After 28 days, mice were sacrificed and gross examination of all major organs were performed. Blood was collected to obtain serum. Serum alanine aminotransferase (ALT) and asparate aminotransferase (AST) were analyzed using ALT/AST kit (BioVision) as per instructional manual.

| SMILES | EMT markers ZO-1, E-Cadherin, Snail, β-catenin (5FUR HCT116 cells) | colitis phenotype, therapeutic regimen (C57BL/6 mice [1]) | TNBS-induced colon shortening and colonic inflammation, pre-treatment (C57BL/6 mice [1]) | barrier function, pre-treatment (C57BL/6 mice [1]) | expression of CDH5 (VE-Cadherin) [2] | LPS-induced increase in serum IL-6 and TNF-α levels (C57BL/6 mice [3]) | autophagy induction (HeLa cells) | serum AST and ALT levels at day 28 (C57BL/6 mice [4]) | signs of toxicity (body weights, CBC counts, serum ALT and AST) (C57BL/6 mice [4]) | expression of E-cadherin (5FUR HCT116 cells; colon cancer cell lines) |
| --- | --- | --- | --- | --- | --- | --- | --- | --- | --- | --- |
| Oc1ccc2c(c1)COc1cc(O)ccc1-2 [UAS03, 6H-benzo[c]chromene-3,8-diol] | upregulated ZO-1, E-Cadherin, and down regulated Snail and β-catenin | reversed the colitis phenotype | protected | enhanced barrier function | increased the expression of CDH5 | reduced | induce autophagy | no significant differences | did not exhibit any signs of toxicity | – |
| O=c1oc2cc(O)ccc2c2ccc(O)cc12 [UroA, 3,8-dihydroxy-6H-dibenzo[b,d]pyran-6-one] | upregulated ZO-1, E-Cadherin, and down regulated Snail and β-catenin | reversed the colitis phenotype | protected | enhanced barrier function | increased the expression of CDH5 | reduced | induce autophagy | no significant differences | – | enhanced the expression of E-cadherin |
